Measured values reported in patent US20230048512A1, “COCRYSTALS OF PTEROSTILBENE AND COMPOSITIONS COMPRISING THEM” (CENTER FOR INTELLIGENT RESEARCH IN CRYSTAL ENGINEERING, S.L., priority 2019, published 2023).
“And” between values parts separate entries of the source, which are not always exact repeats. Identical values can stand only once.

Tests used:
[1] = Dissolution rate of tablets of the solid forms in FaSSIF v2 (small-scale dissolution assay, UV quantification, Noyes-Whitney fit); type: physicochemical; settings: FaSSIF v2 (pH 6.5), 25° C., 120 minutes, 3 mm tablet
Protocol: 1. Molar Extinction Coefficient (MEC) determination in FaSSIF v2 medium
Molar extinction coefficients of pterostilbene and of each coformer were determined by UV-metric titration using a GlpKaTM titrator (Sirius Analytical Instruments, UK). Briefly, a 10 mM stock solution of sample was prepared in DMSO. […] of sample stock solution and 0.25 mL of a 15 mM potassium phosphate buffer were added to 10 mL of a 0.15 M KCI solution, which in turn contained 17.9 mg of FaSSIF v2 powder. The pH of the sample solution was adjusted to 2 with 0.5 M HCI before starting the titration, and then the titration was done using 0.5 M KOH up to pH 12. The UV absorption spectra (between 250 and 450 nm) of the solution were recorded at each titrant addition by a fiber optic dip-probe. The collected data were refined through the RefinamentPro software, and the pKa values and Molar Extinction Coefficients obtained by Target Factor Analysis.
2. Dissolution Rate experiments • Tablet production: tablets of 3 mm diameter were prepared using a manual hydraulic tablet press (Applied Measurements Ltd, UK). The applied pressure was 100 Kg for 2 min. From 10 to 15 mg of each solid form, pterostilbene or cocrystal, were weighted. The total exposed surface area was 0.5 cm^2. • Medium: FaSSIF v2 (pH 6.5), with corresponding amount of phosphoric (28.4 mM) acid instead of maleic acid. • Dissolution tests were performed with a small-scale dissolution assay installed in a GlpKaTM titrator (Sirius Analytical Instruments, UK). • Dissolution time and temperature: 120 minutes and 25° C. • Procedure: 15 mL of FaSSIF v2 was added into the sample vial containing the tablet. Spectra collection started immediately after. Spectra were recorded every 30 seconds between 250 and 450 nm through a Sirius D-PAS spectrometer with a bifurcated optic fibre dip probe (Hellma Analytics). The medium was stirred at a constant rate.
The concentration of pterostilbene in solution at each time point is determined from the spectroscopic data by applying the Beer-Lambert law, using previously determined molar extinction coefficients of pure pterostilbene. Spectrum regions where signal is saturated (A>1.5) or presenting medium interferences were discarded. Then, the concentration data were converted into absolute sample quantities, and used to generate the graphs showing the sample quantity vs. time.
4. Determination of the dissolution rate
Dissolution rate is obtained through the fit of the first order Noyes-Whitney exponential equation to the data: […]
In this equation, [X]t is the weight in grams of compound in solution at the experiment time (min); S is the extrapolated solubility (g) of pterostilbene; kd is the rate constant for dissolution (min^−1); and to (min) is a term allowing for a temporal offset. Results are calculated using a refinement process in which S, kd and t0 are varied in order to minimize the root mean square deviation between the modelled concentrations and the measured concentrations. The dissolution rate (g min^−1) is given by the product kdS (T. Gravestock et al., 2011).

[2] = Pharmacokinetics of pterostilbene in rat plasma after single oral administration; type: in vivo, Male Sprague-Dawley rats; settings: for Plasma concentration of pterostilbene, Mean (arithmetic) / Plasma concentration of pterostilbene, individual animals 1-5: 20 mg/kg P56-VIII (13.5 mg/kg as pterostilbene) single oral
Protocol: In-life phase • Animals: Male Sprague-Dawley rats (weight: 417.9-458.6 g) • Administration: Oral (single dose) • Dose: 20 mg/kg P56 (pterostilbene, free base) 20 mg/kg P56-VIII (cocrystal of pterostilbene and picolinic acid; 13.5 mg/kg as pterostilbene free base) • Formulation: Suspension (0.5% carboxymethylceluulose, CMC) • Adm. volume: 10 ml/kg • Fed/fasted state: Fasted (at least 8 hours prior dosing) • Sampling: Six blood samples/animal (1, 2, 4, 6, 8 and 24 hours post-adm.) • Plasma samples: Plasma samples using K3-EDTA as anticoagulant.
Samples were immediately frozen at −80° C. until their analysis
Pharmacokinetic analysis was performed by non-compartmental pharmacokinetic analysis using Kinetica v5 software (Alfasoft Limited, Luton, UK). Descriptive statistics was performed using Microsoft Excel spreadsheet 2007 (Microsoft Inc, Redmond, US). Plasma bioanalysis was made by LC-MS/MS.
Concentration values below the lower limit of quantification (BLQ) were set to zero, whereas missing concentration values were not considered for statistical and pharmacokinetic evaluations. All computations used the nominal sampling times, nominal doses and concentrations levels were expressed as free base. The numerical data presented below were computer generated. Because of rounding, recalculation of derived values from individual data presented herein below could, in some instances, yield minor variation.
The area under the plasma concentration-time curve from 0 to t (AUC0-t) was determined by using the trapezoidal rule. […] The terminal half-life was determined according to the following rules: (a) time interval equal to at least 1.5 x t1/2, (b) regression analysis (straight line on the log-transformed scale) contained data from at least 3 different time points in the terminal phase and as many data points as possible (always including the last quantifiable concentration but excluding the Cmax), and (c) the coefficient of determination (r^2) was ≥0.85. If at least one of these three conditions was not fulfilled, the terminal half-life and the parameters depending on t1/2 were listed but flagged as not reliably calculated. If the percentage of extrapolated AUC was more than 20%, the individual AUCinf result were listed but flagged as not reliably calculated. Flagged parameters were not included in descriptive statistics and statistical testing procedures.

[3] = 20 mg/kg P56-VIII (13.5 mg as pterostilbene) single oral, fasted male SD rats
[4] = 20 mg/kg cocrystal (13.5 mg/kg as pterostilbene) vs 20 mg/kg P56, single oral, rats

**Q.** With `COc1cc(/C=C/c2ccc(O)cc2)cc(OC)c1` [Pterostilbene (Form VI), Form VI of pterostilbene] as the compound, how does the dissolution rate [1] read?
**A.** 7.4 ± 1.8 nmol/min

**Q.** Which dissolution rate [1] does the source give for `COc1cc(/C=C/c2ccc(O)cc2)cc(OC)c1.Cn1c(=O)c2c(ncn2C)n(C)c1=O` [Pterostilbene:caffeine cocrystal, reference compound] here?
**A.** 45.4 ± 9.2 nmol/min

**Q.** Which dissolution rate [1] does the source give for `COc1cc(/C=C/c2ccc(O)cc2)cc(OC)c1.COc1cc(/C=C/c2ccc(O)cc2)cc(OC)c1.NCCN` [Pterostilbene:ethylendiamine cocrystal, pterostilbene:ethylendiamine cocrystal (2:1)] here?
**A.** 176.1 ± 12.6 nmol/min

**Q.** Which dissolution rate [1] does the source give for `COc1cc(/C=C/c2ccc(O)cc2)cc(OC)c1.ClCCl.Cn1c(=O)c2[nH]cnc2n(C)c1=O` [Pterostilbene:theophylline cocrystal, cocrystal solvate of pterostilbene:theophylline: dichloromethane (1:1:1)] here?
**A.** 33.5 ± 6.7 nmol/min

**Q.** Which dissolution rate [1] does the source give for `COc1cc(/C=C/c2ccc(O)cc2)cc(OC)c1.COc1cc(/C=C/c2ccc(O)cc2)cc(OC)c1.Cc1cnc(C)c(C)n1` [cocrystal of pterostilbene:2,3,5-trimethylpirazine (2:1)] here?
**A.** 52.0 ± 5.8 nmol/min

**Q.** With `COc1cc(/C=C/c2ccc(O)cc2)cc(OC)c1.O=C(O)c1ccccn1` [cocrystal of pterostilbene:picolinic acid (1:1)] as the compound, how does the “AUC0-t, Mean” value [2, 3] read?
**A.** 4699 ng·h/mL

**Q.** And the “AUC0-t, individual animals 1-5” value [2, 3]?
**A.** 4384 ng·h/mL and 3776 ng·h/mL and 4059 ng·h/mL and 9824 ng·h/mL and 1452 ng·h/mL

**Q.** And the “AUCinf, Mean” value [2, 3]?
**A.** 4772 ng·h/mL

**Q.** And the “AUCinf, individual animals 1-5” value [2, 3]?
**A.** 4422 ng·h/mL and 3805 ng·h/mL and 4178 ng·h/mL and 9855 ng·h/mL and 1602 ng·h/mL

**Q.** And the “Cmax, Mean” value [2, 3]?
**A.** 567.8 ng/mL

**Q.** And the “Cmax, individual animals 1-5” value [2, 3]?
**A.** 695.2 ng/mL and 337.4 ng/mL and 513.3 ng/mL and 991.8 ng/mL and 301.1 ng/mL

**Q.** And the “t1/2 (terminal elimination half-life), Mean” value [2, 3]?
**A.** 3.3 h

**Q.** And the “t1/2 (terminal elimination half-life), individual animals 1-5” value [2, 3]?
**A.** 3.7 h and 3.2 h and 5.1 h and 2.8 h and 1.9 h

**Q.** What about the “tmax, Median” value [2, 3] of the same compound?
**A.** 2 h

**Q.** And the “tmax, individual animals 1-5” value [2, 3]?
**A.** 1 h and 6 h and 4 h and 2 h

**Q.** And the “Plasma concentration of pterostilbene, Mean (arithmetic)” value (“Plasma concentration … (arithmetic)” for short) ([2]; fasted male SD rats, 1 h)?
**A.** 504.7 ng/mL

**Q.** And the “Plasma concentration of pterostilbene, individual animals 1-5” value ([2]; fasted male SD rats, 1 h)?
**A.** 513.3 ng/mL and 980.0 ng/mL and 189.8 ng/mL and 695.2 ng/mL and 145.5 ng/mL

**Q.** And the “Plasma concentration … (arithmetic)” value ([2]; fasted male SD rats, 2 h)?
**A.** 514.3 ng/mL

**Q.** And the “Plasma concentration of pterostilbene, individual animals 1-5” value ([2]; fasted male SD rats, 2 h)?
**A.** 462.8 ng/mL and 952.8 ng/mL and 301.1 ng/mL and 587.9 ng/mL and 266.9 ng/mL

**Q.** What about the “Plasma concentration … (arithmetic)” value ([2]; fasted male SD rats, 4 h) of the same compound?
**A.** 451.7 ng/mL

**Q.** And the “Plasma concentration of pterostilbene, individual animals 1-5” value ([2]; fasted male SD rats, 4 h)?
**A.** 262.6 ng/mL and 991.8 ng/mL and 224.7 ng/mL and 538.5 ng/mL and 240.8 ng/mL

**Q.** What about the “Plasma concentration … (arithmetic)” value ([2]; fasted male SD rats, 6 h) of the same compound?
**A.** 305.6 ng/mL

**Q.** And the “Plasma concentration of pterostilbene, individual animals 1-5” value ([2]; fasted male SD rats, 6 h)?
**A.** 150.6 ng/mL and 663.7 ng/mL and 153.8 ng/mL and 222.5 ng/mL and 337.4 ng/mL

**Q.** And the “Plasma concentration … (arithmetic)” value ([2]; fasted male SD rats, 8 h)?
**A.** 214.8 ng/mL

**Q.** What about the “Plasma concentration of pterostilbene, individual animals 1-5” value ([2]; fasted male SD rats, 8 h) of the same compound?
**A.** 210.5 ng/mL and 449.2 ng/mL and 53.5 ng/mL and 136.4 ng/mL and 224.6 ng/mL

**Q.** What about the “Plasma concentration … (arithmetic)” value ([2]; fasted male SD rats, 24 h) of the same compound?
**A.** 7.54 ng/mL

**Q.** What about the “Plasma concentration of pterostilbene, individual animals 1-5” value ([2]; fasted male SD rats, 24 h, BLQ = <5 ng/ml) of the same compound?
**A.** 16.4 ng/ml and 7.67 ng/ml and BLQ and 7.16 ng/ml and 6.50 ng/ml

**Q.** What about the “increase in AUCinf compared to the P56 formulation” value [2, 4] of the same compound?
**A.** about 10 fold

**Q.** What about the “increase in Cmax compared to the P56 formulation” value [2, 4] of the same compound?
**A.** around 6 fold

**Q.** What about the dissolution rate [1] of the same compound?
**A.** 427.8 ± 29.5 nmol/min

**Q.** With `COc1cc(/C=C/c2ccc(O)cc2)cc(OC)c1.COc1cc(/C=C/c2ccc(O)cc2)cc(OC)c1.O=C(O)c1ccccn1` [cocrystal of pterostilbene:picolinic acid (2:1)] as the compound, how does the dissolution rate [1] read?
**A.** 351.3 ± 18.9 nmol/min

**Q.** Which dissolution rate [1] does the source give for `COc1cc(C=Cc2ccc(O)cc2)cc(OC)c1.COc1cc(C=Cc2ccc(O)cc2)cc(OC)c1.NCCN.O.O` [pterostilbene:ethylendiamine:H2O cocrystal hydrate (2:1:2)] here?
**A.** 230.4 ± 26.59 nmol/min
